Several values for one entry are separate records, joined by “and”; a condition that tells them apart may be missing. Equal entries are not always repeated. Where two headings read alike, the source gives them in different places.
What was measured:
HIV-1 [1] = settings: for Plasma HIV-1 RNA in the participants not remaining below LOQ: entire 6-week trial period, two on VPA, one on pyrimethamine, one on combination; for Plasma HIV-1 RNA, Day 0, 6hr / Plasma HIV-1 RNA, Day 1 / Plasma HIV-1 RNA, Day 7 / Plasma HIV-1 RNA, Day 10 / Plasma HIV-1 RNA, Day 14 / Plasma HIV-1 RNA, Day 15 / Plasma HIV-1 RNA, Day 21 / Plasma HIV-1 RNA, Day 42 / Plasma HIV-1 RNA, Day 28 / Plasma HIV-1 RNA, Day 0, 0hr: individual participants, one value each, /N; for Plasma HIV-1 RNA, Day 0, 6hr / Plasma HIV-1 RNA, Day 1 / Plasma HIV-1 RNA, Day 7 / Plasma HIV-1 RNA, Day 10 / Plasma HIV-1 RNA, Day 14 / Plasma HIV-1 RNA, Day 15 / Plasma HIV-1 RNA, Day 21 / Plasma HIV-1 RNA, Day 42 / Plasma HIV-1 RNA, Day 28: /P suffix not kept; for Plasma HIV-1 RNA, Day 0, 0hr: pretreatment, /P suffix (genome not detected / detected below quantitation) not kept
Description: To achieve a constant and the earliest Tmax possible, participants received their first dose of the intervention regimen on day 0 in a fasted state. On day 0, cART and study medication intake were taken under direct supervision of the study staff. The 2-week intervention phase was followed by a 4-week post-intervention phase. Overall, participation involved 11 study visits. To obtain an additional post-intervention phase measurement for the inducible HIV-1 reservoir size, the study was amended and participants were asked to give written consent to an extra blood draw after the 4-week post-intervention phase ended. Plasma HIV-1 RNA levels (COBAS TaqMan; Roche, Basel, Switzerland; LOQ, 20 copies/ml) were monitored at all 11 visits. CD4^+ T cell counts were determined at screening, at the start and end of the intervention phase (days 0 and 14), at day 42, and at the post-intervention phase (≥day 42).

HIV-1 [2] = settings: for Median fold change in CA US HIV-1 RNA from baseline: pyrimethamine monotherapy excluding LUNA-10 who stopped; for CA US HIVRNA copies/150 ng Total RNA Day 0, 6 hours / CA US HIVRNA copies/150 ng Total RNA Day 14 / CA US HIVRNA copies/150 ng Total RNA Day 42 / CA US HIVRNA copies/150 ng Total RNA Day 0, pretreatment: individual participants, one value each, below LOQ imputed as 16; for CA US HIVRNA copies/150 ng Total RNA Day 0, pretreatment: pretreatment baseline
Description: Because of low cell numbers in the baseline sample, LUNA-06 (combination arm, participant stopped at day 7) was excluded from this primary end point analysis.
For quantification of CA US HIV-1 RNA, CD4^+ T cells were isolated from peripheral blood mononuclear cells (PBMCs) by negative selection using EasySep Human CD4^+ T Cell Enrichment Cocktail ([…] Technologies). Isolation of CD4^+ T cells was performed on ice or at 4°C (unless indicated otherwise by the manufacturer). Approximately 1.5 × 10^6 CD4^+ T cells were lysed in triplicate with TRI reagent. Total RNA was isolated by the phenol/chloroform isolation method following the manufacturer’s instructions. A minimum of 150 ng of total RNA was deoxyribonuclease (DNase)–treated following the manufacturer’s instructions (DNase I, Amplification Grade, Invitrogen), and complementary DNA (cDNA) synthesis was performed in duplicate with SuperScript II (Invitrogen) following the manufacturer‘s instructions. Absolute quantification of CA US HIV-1 RNA was performed following a modified version of Pasternak et al. methodology ([72]). Briefly, the first round of nested amplification was performed in a final volume of 25 μl using 10 μl of cDNA, 2.5 μl of 10× PCR buffer (Life Technologies), 1 μl of 50 mM MgCl2 (Life Technologies), 1 μl of 10 mM deoxynucleotide triphosphate (dNTP) (Life Technologies), 0.075 μl of 100 μM US forward primer, 0.075 μl of 100 μM US reverse 1 primer, and 0.2 μl of Platinum Taq polymerase (Life Technologies) at 95°C for 5 min, followed by 15 cycles at 95°C for 30 s, 55°C for 30 s, and 72°C for […]. The second round of amplification was performed in a final volume of 25 μl using 2 μl of preamplified cDNA, 2.5 μl of […] PCR buffer (Life Technologies), 1 μl of 50 mM MgCl2 (Life Technologies), 1 μl of 10 mM dNTPs (Life Technologies), 0.05 μl of 100 μM US forward primer, 0.05 μl of 100 μM US reverse 2 primer, 0.0375 μl of US probe, and 0.2 μl of Platinum Taq polymerase (Life Technologies) at 95°C for 5 min, followed by 45 cycles at 95°C for 30 s and 60°C for 1 min. The list of primers and probe is available in table S9. The absolute number of US copies in the PCR was calculated using a standard curve ranging from 2 to 512 copies of a plasmid containing the full-length HIV-1 genome (pNL4.3.Luc.R-E-). […] The quantity of CA US HIV-1 RNA was expressed as the number of copies per 150 ng of input RNA in reverse transcription.
The measurements related to the end points CA US HIV-1 RNA, MS HIV-1 RNA, plasma HIV-1 RNA, and drug plasma levels were described as median with IQR or full range. […] The fold change difference per study arm from pretreatment CA US HIV-1 RNA levels to the time points 6 hours, day 14, and day 42 after first dosing was calculated by adding up the fold change per individual divided by the total number of measurements available per time point. We analyzed the primary end point by a generalized estimating equation model to evaluate whether any difference in the CA US HIV-1 RNA existed at any time point during the trial in any of the three interventional arms compared to the control arm. An interaction term of time and treatment was included. […] The difference between the observed and expected amount of CA US HIV-1 RNA was calculated, and combination therapy was considered synergistic if the difference and its 95% confidence interval were >0. Because of the number of participants in this pilot, all secondary end points were exploratory.

[3] = Clinical safety: adverse events (CTCAE version 4.0) and treatment adjustments; type: in vivo, human; settings: for Participants who stopped treatment: 14-day intervention, seven participants per arm
Description: Hematological parameters and kidney and liver function were monitored before treatment and on days 7, 14, and 42. At each study visit, participants were clinically assessed by the study physician and safety assessments were performed. All participant-reported AE and SAE were evaluated in relation to VPA and pyrimethamine. Severity was graded according to the Common Terminology Criteria for Adverse Events (CTCAE) version 4.0. In the study protocol, a number of stopping rules were defined including a prespecified interim analysis after the inclusion of 14 participants focusing on the number of participants discontinuing study medication during the intervention phase, CD4^+ T cell count <200 cells/μl, possibly drug-related SAE/AE ≥ grade 4, or AIDS-related illness (Centers for Disease Control category C events).

CCc1nc(N)nc(N)c1-c1ccc(Cl)cc1 [pyrimethamine]
Induction of plasma viremia (HIV-1 [1]; day 1 time point): no evidence that pyrimethamine induced plasma viremia | Proportion of samples with plasma HIV-1 RNA above the assay detection limit (HIV-1 [1]; during the study at the fixed measurements, those with pyrimethamine exposure): 22.2% | Plasma HIV-1 RNA in the participants not remaining below LOQ (HIV-1 [1]): < 50 copies/ml | Plasma HIV-1 RNA, Day 0, 6hr (HIV-1 [1]): < 20 | Plasma HIV-1 RNA, Day 1 (HIV-1 [1]): < 20 | Plasma HIV-1 RNA, Day 7 (HIV-1 [1]): < 20 | Plasma HIV-1 RNA, Day 10 (HIV-1 [1]): < 20 | Plasma HIV-1 RNA, Day 14 (HIV-1 [1]): < 20 | Plasma HIV-1 RNA, Day 15 (HIV-1 [1]): < 20 | Plasma HIV-1 RNA, Day 21 (HIV-1 [1]): < 20 | Plasma HIV-1 RNA, Day 42 (HIV-1 [1]): < 20 | Plasma HIV-1 RNA, Day 28 (HIV-1 [1]; listed as PYR): < 20 (6×) and 20 | Plasma HIV-1 RNA, Day 0, 0hr (HIV-1 [1]): < 20 | Mean fold change in CA US HIV-1 RNA (HIV-1 [2]; 6 hours after first dose, arm mean): 2.11 fold | PLWH with increased CA US HIV-1 RNA (responders) (HIV-1 [2]; 6 hours after the first dose): six of seven | Median fold change CA US HIV-1 RNA (HIV-1 [2]; after 6 hours, the two arms exposed to pyrimethamine pooled (with and without VPA)): 1.8 fold | Median fold change in CA US HIV-1 RNA (normalized to day 0, 0 hours) (HIV-1 [2]; day 0, t = 0 hours (pretreatment baseline, normalisation point)): 1 fold | Median fold change in CA US HIV-1 RNA (normalized to day 0, 0 hours) (HIV-1 [2]; day 0, t = 6 hours after first dose, arm median, PLWH on cART, oral PYR 200 mg day 1 then 100 mg once daily, VPA 30 mg/kg per day): 2.1073 fold | Median fold change in CA US HIV-1 RNA (normalized to day 0, 0 hours) (HIV-1 [2]; day 14 (end of treatment), arm median, PLWH on cART): 1.9 fold | Median fold change in CA US HIV-1 RNA (normalized to day 0, 0 hours) (HIV-1 [2]; day 14 (end of treatment), arm median, PLWH on cART, listed as Pyrimethamine): 1.9129 fold | Median fold change in CA US HIV-1 RNA from baseline (HIV-1 [2]; day 14): 1.8 fold | Median fold change in CA US HIV-1 RNA (normalized to day 0, 0 hours) (HIV-1 [2]; day 42 (28 days after end of treatment), arm median, PLWH on cART): 1.7 fold | Median fold change in CA US HIV-1 RNA (normalized to day 0, 0 hours) (HIV-1 [2]; day 42 (28 days after end of treatment), arm median, PLWH on cART, listed as Pyrimethamine): 1.6775 fold | Median fold change in CA US HIV-1 RNA from baseline (HIV-1 [2]; day 42): 1.6 fold | CA US HIVRNA copies/150 ng Total RNA Day 0, 6 hours (HIV-1 [2]; listed as PYR): 125,01 copies/150 ng Total RNA and 126,50 copies/150 ng Total RNA and 51,31 copies/150 ng Total RNA and 94,04 copies/150 ng Total RNA and 39,82 copies/150 ng Total RNA and 55,52 copies/150 ng Total RNA and 96,01 copies/150 ng Total RNA | CA US HIVRNA copies/150 ng Total RNA Day 14 (HIV-1 [2]; listed as PYR): 114,91 copies/150 ng Total RNA and 111,02 copies/150 ng Total RNA and 74,67 copies/150 ng Total RNA and 54,10 copies/150 ng Total RNA and 42,33 copies/150 ng Total RNA and 62,36 copies/150 ng Total RNA and 111,26 copies/150 ng Total RNA | CA US HIVRNA copies/150 ng Total RNA Day 42 (HIV-1 [2]; listed as PYR): 85,80 copies/150 ng Total RNA and 54,17 copies/150 ng Total RNA and 82,71 copies/150 ng Total RNA and 69,81 copies/150 ng Total RNA and 29,28 copies/150 ng Total RNA and 101,16 copies/150 ng Total RNA and 84,39 copies/150 ng Total RNA | CA US HIVRNA copies/150 ng Total RNA Day 0, pretreatment (HIV-1 [2]; listed as PYR): 32,60 copies/150 ng Total RNA and 68,92 copies/150 ng Total RNA and 24,35 copies/150 ng Total RNA and 49,43 copies/150 ng Total RNA and 16,00 copies/150 ng Total RNA and 79,98 copies/150 ng Total RNA and 51,15 copies/150 ng Total RNA | Adverse events experienced on pyrimethamine (monotherapy and combination arms) of all AEs ([3]; 6-week study duration): 84 of 103 | Grade 3 adverse events (number) ([3]; 6-week study duration): two | Participants who stopped treatment [3]: one

CCCC(CCC)C(=O)O [valproic acid]
Plasma HIV-1 RNA in the participants not remaining below LOQ (HIV-1 [1]): < 50 copies/ml | Plasma HIV-1 RNA, Day 0, 6hr (HIV-1 [1]): < 20 | Plasma HIV-1 RNA, Day 7 (HIV-1 [1]): < 20 | Plasma HIV-1 RNA, Day 10 (HIV-1 [1]): < 20 | Plasma HIV-1 RNA, Day 14 (HIV-1 [1]): < 20 | Plasma HIV-1 RNA, Day 15 (HIV-1 [1]): < 20 | Plasma HIV-1 RNA, Day 28 (HIV-1 [1]): < 20 | Plasma HIV-1 RNA, Day 42 (HIV-1 [1]): < 20 | Plasma HIV-1 RNA, Day 1 (HIV-1 [1]; listed as VPA): < 20 (6×) and 41 | Plasma HIV-1 RNA, Day 21 (HIV-1 [1]; listed as VPA): < 20 (6×) and 21 | Plasma HIV-1 RNA, Day 0, 0hr (HIV-1 [1]): < 20 | Median CA US HIV-1 RNA compared to pretreatment levels (HIV-1 [2]; any time point): did not have significantly increased | CA US HIVRNA copies/150 ng Total RNA Day 0, 6 hours (HIV-1 [2]; listed as VPA): 42,74 copies/150 ng Total RNA and 53,04 copies/150 ng Total RNA and 19,23 copies/150 ng Total RNA and 101,51 copies/150 ng Total RNA and 51,59 copies/150 ng Total RNA and 10,16 copies/150 ng Total RNA and 16,00 copies/150 ng Total RNA | CA US HIVRNA copies/150 ng Total RNA Day 14 (HIV-1 [2]; listed as VPA): 28,40 copies/150 ng Total RNA and 97,80 copies/150 ng Total RNA and 16,00 copies/150 ng Total RNA and 47,89 copies/150 ng Total RNA and 161,79 copies/150 ng Total RNA and 18,41 copies/150 ng Total RNA and 18,82 copies/150 ng Total RNA | CA US HIVRNA copies/150 ng Total RNA Day 42 (HIV-1 [2]; listed as VPA): 49,74 copies/150 ng Total RNA and 59,03 copies/150 ng Total RNA and 16,00 copies/150 ng Total RNA and 52,98 copies/150 ng Total RNA and 59,33 copies/150 ng Total RNA and 22,83 copies/150 ng Total RNA | CA US HIVRNA copies/150 ng Total RNA Day 0, pretreatment (HIV-1 [2]; listed as VPA): 95,16 copies/150 ng Total RNA and 39,10 copies/150 ng Total RNA and 16,00 copies/150 ng Total RNA and 76,70 copies/150 ng Total RNA and 12,93 copies/150 ng Total RNA and 22,90 copies/150 ng Total RNA | Participants who stopped treatment [3]: one

Reference: article PMC10017042 (Science Advances, 2023)
